Assay results as given in patent publication US4098823A, “Monospiroalkyl derivatives of prostaglandins” (Miles Laboratories, Inc., priority 1977, dated 1978).

Columns and labels:
[1] = tested on: Gastric Secretion; experiment: Effects on Gastric Secretion in the Rat; assay type: in vivo; settings: pylorus-ligated rat, subcutaneous, 2 x 1.5 mg/kg (total 3.0 mg/kg), 4 hours
Outline: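 Rats (150-200 g, groups of six) fasted 48 h, pylorus ligated under ether. Compounds given s.c. in phosphate buffer pH 7.38 at 1.5 mg/kg immediately post-surgery and 2 h later (total 3.0 mg/kg). At 4 h, gastric volume and total acid (titration with 0.1 N NaOH, mEq) compared with vehicle controls by t-test.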

[2] = tested on: Blood Pressure and Heart Rate; experiment: Effects on Blood Pressure and Heart Rate in the Anesthetized Cat; assay type: in vivo; settings: Felis catus, intravenous, 0.01 to 10.0 mcg/kg, scored only on hypotension, read-out: Test D Activity Value (ED50 mmHg, decrease in blood pressure)
Outline: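 Cats of either sex anesthetized with pentobarbital sodium (35 mg/kg i.v.) plus barbital sodium (100 mg/kg i.v.), femoral arterial pressure and ECG-driven heart rate recorded. Compound given i.v. at one-log increasing doses, 0.01–10.0 mcg/kg, every 10 min. ED50 mmHg (dose lowering blood pressure by 50 mmHg) derived graphically from hypotension.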

[3] = tested on: rat stomach fundus; experiment: Cascade Assay, stomach (smooth muscle stimulant effect); assay type: cell-based; settings: superfused, 50% of maximum (PGE1)
Outline: (§1)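 Rabbit aortic strip (4 g tension), rat stomach fundus, rat colon and chick rectum (1 g) in cascade, superfused at 10 ml/min with 37° C Krebs containing cholinergic, adrenergic, serotonin and histamine blockers. Doses of 0.001–100,000 ng dripped on at 10–20 min intervals; maximal tension rise gave graphical ED50 per tissue.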

[4] = tested on: chick rectum; experiment: Cascade Assay, rectum (smooth muscle stimulant effect); assay type: cell-based; settings: superfused, 50% of maximum (PGE1)
Outline: as §1

[5] = tested on: Rat Uterus; experiment: Effects on the Rat Uterus in Vitro; assay type: cell-based; settings: Rattus norvegicus; in vitro, 29° C; response 50% that of carbachol; read-out: Test F Rat Uterus, Activity Value (ED50)
Outline: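 Uterine segments came from rats (140–160 g) given 1 mg/kg diethylstilbestrol s.c. 18 h earlier. Tissue was held isometrically at 1 g tension in de Jalon solution at 29 °C, gassed with 95% O2/5% CO2. Compound was tested at 0.001–10 mcg/ml in log steps, every 10 min with washes, and ED50 was derived graphically as 50% of the second carbachol (1 mcg/ml) response.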

EC50 [5]: > 10 µg/mL
SMILES: COC(=O)CCCCCC[C@H]1C(=O)C[C@@H](O)[C@@H]1/C=C/[C@H](O)C1CC2(CCC2)C1 [TR-4120, Methyl 7-{3R-hydroxy-5-oxo-2R-[3R-hydroxy-3-(spiro[3.3]hept-2-yl)-1E-propenyl]cyclopent-1R-yl}heptanoate]
Test B Activity Value (% decrease in acidity, inhibition of gastric secretion) [1]: 2 (26-50, significant) | ED (50 mmHg) [2]: > 0.01 mg/kg | Test E Cascade Assay, Stomach, Activity Value (ED50) [3]: 0 (>10000) | Test E Cascade Assay, Rectum, Activity Value (ED50) [4]: 1 (1001 - 10000)
